Here are results for 26 compounds from patent US5093331A, “Labdane derivatives, a process for their preparation, and their use as medicaments” (Hoechst Aktiengesellschaft, priority 1987, dated 1992).

One may read the EC50 as the midpoint of the concentration-response curve.

Values after ≈ are worked out from the molar mass of the structure shown. Structures can show the parent of a compound that is named as a salt.

The test system of one test is Guineapig atrium. Put plainly: Positive inotropic effect, isolated electrically stimulated guineapig atrium. The settings on record: Cavia porcellus, Table III, formula Ia, 32° C., contractility recorded 7 to 10 minutes. Format: cell-based. The protocol:
Positive inotropic effect
The following method was used:
Guineapigs of both sexes and weighing 400 g are sacrificed, and the heart is removed and placed in Ringer's solution at room temperature. Both the left and the right atria are then isolated and fixed in an organ holder, and the preparation is placed in a bath containing Ringer's solution and maintained at a temperature of 32° C. A mixture of 95% O2 and 5% CO2 is then bubbled through the organ bath and the atrium is electrically stimulated. The compound to be tested is dissolved in water to give a solution of known concentration and is added to the bath. The contractility of the atrium is recorded for 7 to 10 minutes on a Nihon Kohden 4-channel pen recorder with an isometric strain gage. The activity is expressed on the basis of the resulting data as the EC50.
The results obtained in this model are indicated for representative compounds of the invention in Tables III and IV which follow: […]
Take `C=C[C@@]1(C)CC(=O)[C@]2(O)[C@@]3(C)[C@@H](O)CCC(C)(C)[C@@H]3[C@H](O)[C@H](OC(=O)COC(=O)CN(CC)CC)[C@@]2(C)O1` [1 N(C2 H5)2, 8,13-Epoxy-7β-(2-N,N-diethylglycinyloxyacetoxy)-1α,6β,9α-trihydroxylabd-14-en-11-one hydrochloride]: the EC50 was 0.03 µg/mL.

`C=C[C@@]1(C)CC(=O)[C@]2(O)[C@@]3(C)[C@@H](O)CCC(C)(C)[C@@H]3[C@H](O)[C@H](OC(=O)COC(=O)CN)[C@@]2(C)O1` [1 NH2, 8,13-Epoxy-7β-(2-glycinyloxyacetoxy)-1α,6β,9α-trihydroxylabd-14-en-11-one monohydrochloride] came in with an EC50 of 0.1 µg/mL.

In turn, `C=C[C@@]1(C)CC(=O)[C@]2(O)[C@@]3(C)[C@@H](O)CCC(C)(C)[C@@H]3[C@H](O)[C@H](OC(=O)COC(=O)CN(C(C)C)C(C)C)[C@@]2(C)O1` [1 N[CH(CH3)2]2, 8,13-Epoxy-7β-(2-diisopropylaminoacetoxyacetoxy)-1α, 6β,9α-trihydroxylabd-14-en-11-one hydrochloride sesquihydrate] showed an EC50 of 1 µg/mL.

`C=C[C@@]1(C)CC(=O)[C@]2(O)[C@@]3(C)[C@@H](O)CCC(C)(C)[C@@H]3[C@H](O)[C@H](OC(=O)COC(=O)CNc3cc(OC)c(OC)c(OC)c3)[C@@]2(C)O1` [drawing 48] returned an EC50 of 0.545 µg/mL (≈ 0.839 µM).

`C=C[C@@]1(C)CC(=O)[C@]2(O)[C@@]3(C)[C@@H](O)CCC(C)(C)[C@@H]3[C@H](O)[C@H](OC(=O)COC(=O)CN3CCC(c4ccccc4)CC3)[C@@]2(C)O1` [drawing 49] registered a 50% effective concentration (EC50) of 0.18 µg/mL (≈ 0.287 µM).

For `C=C[C@@]1(C)CC(=O)[C@]2(O)[C@@]3(C)[C@@H](O)CCC(C)(C)[C@@H]3[C@H](O)[C@H](OC(=O)COC(=O)CN3CCN(C)CC3)[C@@]2(C)O1` [drawing 50], the 50% effective concentration (EC50) came out at 0.1 µg/mL (≈ 0.176 µM). This EC50 lies about 1.8-fold lower than the previous one.

For the compound `C=C[C@@]1(C)CC(=O)[C@]2(O)[C@@]3(C)[C@@H](O)CCC(C)(C)[C@@H]3[C@H](O)[C@H](OC(=O)COC(=O)CN3CCOCC3)[C@@]2(C)O1` [drawing 51], it took 1.42 µg/mL (≈ 2.56 µM) to reach a half-maximal effect (EC50).

For the compound `C=C[C@@]1(C)CC(=O)[C@]2(O)[C@@]3(C)[C@@H](O)CCC(C)(C)[C@@H]3[C@H](O)[C@H](OC(=O)COC(=O)CN3CCN(C(=O)OCC)CC3)[C@@]2(C)O1` [drawing 52], the EC50 was more than 1 µg/mL.

Staying with this test, now noted: Cavia porcellus, Table IV, formula Ib, 32° C., contractility recorded 7 to 10 minutes.
As to `C=C[C@@]1(C)CC(=O)[C@]2(O)[C@@]3(C)[C@@H](O)CCC(C)(C)[C@@H]3[C@H](OC(=O)COC(=O)CN3CCCCC3)[C@H](OC(C)=O)[C@@]2(C)O1`, the EC50 came out at 0.04 µg/mL (≈ 0.0674 µM).

Consider `C=C[C@@]1(C)CC(=O)[C@]2(O)[C@@]3(C)[C@@H](O)CCC(C)(C)[C@@H]3[C@H](OC(=O)COC(=O)CN3CCN(C)CC3)[C@H](OC(C)=O)[C@@]2(C)O1`, for which the midpoint of the response, the EC50, lay at 0.006 µg/mL (≈ 0.00986 µM). Against the preceding compound, the EC50 is about 6.7-fold lower.

The compound `C=C[C@@]1(C)CC(=O)[C@]2(O)[C@@]3(C)[C@@H](O)CCC(C)(C)[C@@H]3[C@H](OC(=O)COC(=O)CN3CCOCC3)[C@H](OC(C)=O)[C@@]2(C)O1` yielded an EC50 of 0.072 µg/mL (≈ 0.121 µM).

With `C=C[C@@]1(C)CC(=O)[C@]2(O)[C@@]3(C)[C@@H](O)CCC(C)(C)[C@@H]3[C@H](OC(=O)COC(=O)CCN3CCCCC3)[C@H](OC(C)=O)[C@@]2(C)O1`, the response was half-maximal at 0.086 µg/mL (≈ 0.142 µM) (EC50).

For the compound `C=C[C@@]1(C)CC(=O)[C@]2(O)[C@@]3(C)[C@@H](O)CCC(C)(C)[C@@H]3[C@H](OC(=O)COC(=O)CN(CC)CC)[C@H](OC(C)=O)[C@@]2(C)O1` [1 OAc N(C2 H5)2, 7β-Acetoxy-6β-(2-N,N-diethylaminoacetoxyacetoxy)-8,13-epoxy-1α,9α-dihydroxylabd-14-en-11-one hydrochloride sesquihydrate], the EC50 is 0.03 µg/mL. Against the preceding compound, the EC50 is about 2.9-fold lower.

`C=C[C@@]1(C)CC(=O)[C@]2(O)[C@@]3(C)[C@@H](O)CCC(C)(C)[C@@H]3[C@H](OC(=O)COC(=O)CN)[C@H](OC(C)=O)[C@@]2(C)O1` [1 OAc NH2, 7β-acetoxy-8,13-epoxy-6β-(2-glycinyloxyacetoxy)-1α,9α-dihydroxylabd-14-en-11-one hydrochloride] registered an EC50 of 0.008 µg/mL.

Compound `C=C[C@@]1(C)CC(=O)[C@]2(O)[C@@]3(C)[C@@H](O)CCC(C)(C)[C@@H]3[C@H](OC(=O)COC(=O)CN(C(C)C)C(C)C)[C@H](OC(C)=O)[C@@]2(C)O1` [1 OAc N[CH(CH3)2]2, 7β-Acetoxy-6β-(2-N,N-diisopropylaminoacetoxyacetoxy)-8,13-epoxy-1α,9α-dihydroxylabd-14-en-11-one hydrochloride monohydrate] showed an EC50 of 0.14 µg/mL. Compared with the last compound, the EC50 is about 18-fold higher.

For the compound `C=C[C@@]1(C)CC(=O)[C@]2(O)[C@@]3(C)[C@@H](O)CCC(C)(C)[C@@H]3[C@H](OC(=O)COC(=O)CN)[C@H](O)[C@@]2(C)O1` [1 OH NH2, 8,13-epoxy-6β-(2-glycinyloxyacetoxy)-1α,7β, 9α-trihydroxylabd-14-en-11-one hydrochloride], the EC50 is more than 10 µg/mL.

`C=C[C@@]1(C)CC(=O)[C@]2(O)[C@@]3(C)[C@@H](O)CCC(C)(C)[C@@H]3[C@H](OC(=O)COC(=O)CCN(C)C)[C@H](OC(C)=O)[C@@]2(C)O1` [2 OAc N(CH3)2] returned a concentration giving a half-maximal response (EC50) of 0.058 µg/mL (≈ 0.102 µM).

For the compound `C=C[C@@]1(C)CC(=O)[C@]2(O)[C@@]3(C)[C@@H](O)CCC(C)(C)[C@@H]3[C@H](OC(=O)COC(=O)CCN)[C@H](OC(C)=O)[C@@]2(C)O1` [2 OAc NH2], the concentration giving a half-maximal response (EC50) amounted to 0.02 µg/mL (≈ 0.0371 µM).

The subject of the next test is Blood pressure in cats. The test can be described thus: Test for an antihypertensive effect: blood pressure in cats. The settings on record: 0.1 mg/kg i.v., anesthetized cats, formula Ia. The format is in vivo. The protocol:
Test for an antihypertensive effect
Cats of both sexes and weighing 3 to 4 kg are anesthetized with ether and maintained under chloralose anesthesia (70 mg/kg i.v.). Cannulas are placed in the femoral artery and femoral vein to record the blood pressure and to administer the medicament, respectively. The blood pressure in the femoral artery is recorded via a Statham P 23 Db pressure transducer on a Nihon-Kohden pen recorder for physiological purposes. The compound to be tested is dissolved in distilled water and administered intravenously. The fall in blood pressure and the duration of the effect lowering blood pressure are noted.
Turning to `C=C[C@@]1(C)CC(=O)[C@]2(O)[C@@]3(C)[C@@H](O)CCC(C)(C)[C@@H]3[C@H](O)[C@H](OC(=O)COC(=O)CN3CCCCC3)[C@@]2(C)O1`, the “duration (of fall of B.P.)” value was determined as 40 min and the “fall of B.P.” value came to 25 mm Hg.

Regarding `C=C[C@@]1(C)CC(=O)[C@]2(O)[C@@]3(C)[C@@H](O)CCC(C)(C)[C@@H]3[C@H](O)[C@H](OC(=O)COC(=O)CN)[C@@]2(C)O1` [1 NH2, 8,13-Epoxy-7β-(2-glycinyloxyacetoxy)-1α,6β,9α-trihydroxylabd-14-en-11-one monohydrochloride], the “duration (of fall of B.P.)” value was 120 min and the “fall of B.P.” value is given as 20 mm Hg.

For `C=C[C@@]1(C)CC(=O)[C@]2(O)[C@@]3(C)[C@@H](O)CCC(C)(C)[C@@H]3[C@H](O)[C@H](OC(=O)COC(=O)CN(C(C)C)C(C)C)[C@@]2(C)O1` [1 NH[CH(CH3)2]2], the “duration (of fall of B.P.)” value came to 125 min and the “fall of B.P.” value came out at 25 mm Hg.

Regarding `C=C[C@@]1(C)CC(=O)[C@]2(O)[C@@]3(C)[C@@H](O)CCC(C)(C)[C@@H]3[C@H](O)[C@H](OC(=O)COC(=O)CN3CCN(C)CC3)[C@@]2(C)O1` [drawing 61], the “duration (of fall of B.P.)” value amounted to 40 min and the “fall of B.P.” value stood at 20 mm Hg.

As for `C=C[C@@]1(C)CC(=O)[C@]2(O)[C@@]3(C)[C@@H](O)CCC(C)(C)[C@@H]3[C@H](O)[C@H](OC(=O)COC(=O)CN3CCOCC3)[C@@]2(C)O1` [drawing 62], the “duration (of fall of B.P.)” value is 60 min and the “fall of B.P.” value amounted to 30 mm Hg.

The test is the same for the next values; noted with them: 0.3 mg/kg i.v., anesthetized cats, formula Ia.
As for `C=C[C@@]1(C)CC(=O)[C@]2(O)[C@@]3(C)[C@@H](O)CCC(C)(C)[C@@H]3[C@H](O)[C@H](OC(=O)COC(=O)CNC(=O)OC(C)(C)C)[C@@]2(C)O1` [1 NHBoC], the “duration (of fall of B.P.)” value came out at 35 min and the “fall of B.P.” value is given as 30 mm Hg.

For the compound `C=C[C@@]1(C)CC(=O)[C@]2(O)[C@@]3(C)[C@@H](O)CCC(C)(C)[C@@H]3[C@H](O)[C@H](OC(=O)COC(=O)CN3CCN(C(=O)OCC)CC3)[C@@]2(C)O1` [drawing 63], the “duration (of fall of B.P.)” value amounted to 30 min and the “fall of B.P.” value was determined as 35 mm Hg.

The test is the same for the next values; noted with them: 1 mg/kg i.v., anesthetized cats, formula Ia.
As to `C=C[C@@]1(C)CC(=O)[C@]2(O)[C@@]3(C)[C@@H](O)CCC(C)(C)[C@@H]3[C@H](O)[C@H](OC(=O)COC(=O)CN3CCC(c4ccccc4)CC3)[C@@]2(C)O1` [drawing 60], the “duration (of fall of B.P.)” value was 45 min and the “fall of B.P.” value was 60 mm Hg.

Regarding `C=C[C@@]1(C)CC(=O)[C@]2(O)[C@@]3(C)[C@@H](O)CCC(C)(C)[C@@H]3[C@H](O)[C@H](OC(=O)COC(=O)CNc3cc(OC)c(OC)c(OC)c3)[C@@]2(C)O1` [drawing 64], the “duration (of fall of B.P.)” value worked out at 60 min and the “fall of B.P.” value is listed as 80 mm Hg.
